Measurements published in patent US20170232115A1 (priority 2011, published 2017).
No end group written: not given here.

How the values were obtained:
[1] = molecular target: hepatocyte growth factor receptor (c-Met) (Homo sapiens, UniProt P08581); details: peptide identified by phage display
[2] = cited from earlier work
[3] = In vitro transdermal permeation, modified Franz diffusion cells, HPLC; format: in vitro ADME, human
Protocol: Finally, a number of these cosolvent formulations were evaluated for their in vitro transdermal permeation properties (FIG. 3X2). Note that these cosolvents are also known to function as permeability enhancers in some formulations (10-1 1). For this series of experiments, human skin obtained from abdominoplastic surgery was mounted on modified Franz diffusion cells and drug permeation was determined as a function of time using high performance liquid chromatography.
The Franz diffusion cell is an essential tool in the field of transdermal drug delivery. Patient-derived skin is placed between the cell cap and the solution chamber. The cell cap is exposed to the environment allowing the stratum corneum to also be exposed to the environment. The solution chamber is filled with an isotonic diffusion buffer. Additionally the solution chamber has an injection port that allows for difhsion buffer to be removed without disturbing the setup. Finally, the solution chamber is surrounded by a water jacket that allows for temperature control. The Franz diffusion cell allows for in vitro studies of transdennal delivery to be carried out using physiological conditions. Note that penetration of any solute through the patient-derived skin into the difhsion buffer is equivalent to that solute reaching systemic circulation in an in vivo system. […] Determination of silica content in different layers of the skin will be determined using enzymatic tissue digestion, and inductively coupled plasma mass spectroscopy (ICP mass spec). Both the SLB and nanoporous particle core can be fluorescently tagged to allow for confocal microscopy. In addition, the skin samples can be microtomed after treatment and incubation with protocells so that they can be imaged using TEM.

hepatocyte growth factor receptor (c-Met), sequence (P08581 25-932): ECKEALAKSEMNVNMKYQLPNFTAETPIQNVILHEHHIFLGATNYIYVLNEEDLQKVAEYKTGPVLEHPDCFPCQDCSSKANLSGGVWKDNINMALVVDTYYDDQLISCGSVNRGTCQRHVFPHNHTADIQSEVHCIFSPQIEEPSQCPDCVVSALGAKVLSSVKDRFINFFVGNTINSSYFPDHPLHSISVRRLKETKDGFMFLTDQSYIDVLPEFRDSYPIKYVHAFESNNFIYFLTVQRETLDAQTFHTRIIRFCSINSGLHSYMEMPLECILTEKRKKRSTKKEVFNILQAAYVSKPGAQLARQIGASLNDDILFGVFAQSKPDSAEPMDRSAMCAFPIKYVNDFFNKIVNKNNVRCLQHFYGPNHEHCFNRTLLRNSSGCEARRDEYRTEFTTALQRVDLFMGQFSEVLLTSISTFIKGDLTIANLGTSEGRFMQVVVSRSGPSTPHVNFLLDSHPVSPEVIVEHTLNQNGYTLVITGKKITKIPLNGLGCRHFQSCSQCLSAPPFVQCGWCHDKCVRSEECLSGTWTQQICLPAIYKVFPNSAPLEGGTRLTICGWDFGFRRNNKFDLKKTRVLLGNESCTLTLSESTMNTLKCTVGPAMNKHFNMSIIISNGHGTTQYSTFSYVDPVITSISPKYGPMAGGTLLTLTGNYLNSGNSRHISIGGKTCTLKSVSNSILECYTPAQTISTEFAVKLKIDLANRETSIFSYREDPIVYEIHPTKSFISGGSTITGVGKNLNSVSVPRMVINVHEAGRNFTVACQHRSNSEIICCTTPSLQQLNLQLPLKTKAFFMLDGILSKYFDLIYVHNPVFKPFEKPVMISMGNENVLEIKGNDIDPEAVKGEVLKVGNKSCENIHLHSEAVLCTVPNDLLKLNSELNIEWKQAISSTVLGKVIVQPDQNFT

## ASVHFPP [MC40]
[1]
  affinity for hepatocyte growth factor receptor (c-Met): nanomolar affinity

## CC(C)Cc1ccc(C(C)C(=O)O)cc1 (stereo not drawn) [ibuprofen]
[2]
  solubility in H2O: insoluble in H2O

## Cc1ccc(NC(=O)c2ccc(CN3CCN(C)CC3)cc2)cc1Nc1nccc(-c2cccnc2)n1 [Imatinib]
[3]; DMSO
  permeability through the skin: highest permeability
[3]; DMSO formulation
  flux (rate of permeation through the skin): 0.225 μg/cm2hr
[3]; water (pH 7) as solvent system, 24 hours
  permeation through the skin: no imatinib permeated through the skin

## CN1CCCC1c1cccnc1 (stereo not drawn) [Nicotine]
[2]
  solubility in H2O: miscible in H2O
